Results: BindingDB's records for doi:10.1021/jm9604890 (University of Groningen, 1997)

Test: Compound was tested for intrinsic efficacy against human 5-hydroxytryptamine 1D receptor alpha measured as the reduction of forskolin-stimulated cAMP.

| Structure (SMILES) | Ki [nM] |
| --- | --- |
| CN(C)CCc1c[nH]c2ccc(OS(=O)(=O)C(F)(F)F)cc12 [Trifluoro-methanesulfonic acid 3-(2-dimethylamino-ethyl)-1H-indol-5-yl ester] | 30 |
| NCCc1c[nH]c2ccc(OS(=O)(=O)C(F)(F)F)cc12 [Trifluoro-methanesulfonic acid 3-(2-amino-ethyl)-1H-indol-5-yl ester] | 19 |
| CCCN(CCC)CCc1c[nH]c2ccc(OS(=O)(=O)C(F)(F)F)cc12 [Trifluoro-methanesulfonic acid 3-(2-dipropylamino-ethyl)-1H-indol-5-yl ester] | 36 |
